Values quoted from earlier work, collected in patent US9974839B2, “Self-assembled toroidal-spiral particles and manufacture and uses thereof” (THE BOARD OF TRUSTEES OF THE UNIVERSITY OF ILLINOIS, priority 2009, dated 2018).

Tested on: mitogenic activity
Details: in vitro

Which “mitogenic activity relative to EGF isomer PEGylated at the amino terminus” value does the source give for “mono-PEGylated epidermal growth factor (EGF) with PEG 3400 at Lys28 and Lys48: literature EGF mono-PEGylated with PEG 3400 at Lys28 and Lys48 (ref. 28) (NSDSECPLSHDGYCLHDGVCMYIEALDKYACNCVVGYIGERCQYRDLKWWELR; Epidermal growth factor PEG 3400; UniProt P01133 971-1023, looked up)” here?
The value was “significantly less active”.
